Assay: xn = mol fraction of the nth substance listed
Conditions: 101 kPa, Liquid; for mass density: Vibrating tube method; for speed of sound: Frequency=2 MHz, Linear variable-path acoustic interferometer

Cc1ccccc1Cl [2-chlorotoluene] + OCc1ccccc1
Conditions | mass density, 298.15 K [kg/m3] | mass density, 303.15 K [kg/m3] | mass density, 308.15 K [kg/m3] | mass density, 313.15 K [kg/m3] | speed of sound, 303.15 K [m/s] | speed of sound, 313.15 K [m/s]
x2 = 0.0507 | 1074.83 | 1071.16 | 1066.48 | 1061.94 | 1301 | 1296
x2 = 0.1134 | 1072.8 | 1068.97 | 1064.3 | 1059.77 | 1320 | 1308
x2 = 0.1507 | 1071.57 | 1067.66 | 1062.99 | 1058.47 | 1332 | 1316
x2 = 0.1894 | 1070.31 | 1066.29 | 1061.66 | 1057.14 | 1344 | 1325
x2 = 0.2477 | 1068.37 | 1064.25 | 1059.65 | 1055.13 | 1360 | 1336
x2 = 0.3059 | 1066.42 | 1062.2 | 1057.64 | 1053.16 | 1377 | 1348
x2 = 0.3686 | 1064.3 | 1060 | 1055.47 | 1051.04 | 1394 | 1360
x2 = 0.4535 | 1061.39 | 1057.02 | 1052.56 | 1048.18 | 1415 | 1377
x2 = 0.5385 | 1058.41 | 1054.04 | 1049.63 | 1045.3 | 1436 | 1393
x2 = 0.6309 | 1055.16 | 1050.78 | 1046.46 | 1042.2 | 1456 | 1411
x2 = 0.7003 | 1052.67 | 1048.32 | 1044.08 | 1039.89 | 1469 | 1426
x2 = 0.7723 | 1050.04 | 1045.77 | 1041.59 | 1037.48 | 1482 | 1442
x2 = 0.8537 | 1047.01 | 1042.88 | 1038.81 | 1034.72 | 1496 | 1458
x2 = 0.8902 | 1045.64 | 1041.6 | 1037.56 | 1033.55 | 1499 | 1466
x2 = 0.9547 | 1043.18 | 1039.28 | 1035.35 | 1031.4 | 1508 | 1478

Cc1ccccc1[N+](=O)[O-] [2-nitrotoluene] + OCc1ccccc1
Conditions | mass density, 298.15 K [kg/m3] | mass density, 303.15 K [kg/m3] | mass density, 308.15 K [kg/m3] | mass density, 313.15 K [kg/m3] | speed of sound, 303.15 K [m/s] | speed of sound, 313.15 K [m/s]
x2 = 0.0534 | 1153.93 | 1148.05 | 1144.09 | 1139.21 | 1444 | 1406
x2 = 0.1227 | 1146.45 | 1140.66 | 1136.63 | 1131.74 | 1449 | 1411
x2 = 0.1912 | 1138.96 | 1133.26 | 1129.16 | 1124.32 | 1454 | 1418
x2 = 0.2352 | 1134.11 | 1128.45 | 1124.35 | 1119.53 | 1458 | 1421
x2 = 0.2997 | 1126.89 | 1121.35 | 1117.19 | 1112.42 | 1462 | 1427
x2 = 0.3713 | 1118.76 | 1113.36 | 1109.17 | 1104.47 | 1467 | 1432
x2 = 0.4567 | 1108.91 | 1103.69 | 1099.48 | 1094.85 | 1474 | 1440
x2 = 0.5416 | 1098.93 | 1093.89 | 1089.68 | 1085.15 | 1480 | 1447
x2 = 0.6038 | 1091.49 | 1086.61 | 1082.42 | 1077.95 | 1485 | 1452
x2 = 0.6536 | 1085.47 | 1080.69 | 1076.51 | 1072.12 | 1489 | 1457
x2 = 0.7025 | 1079.47 | 1074.82 | 1070.68 | 1066.34 | 1493 | 1461
x2 = 0.743 | 1074.47 | 1069.91 | 1065.79 | 1061.49 | 1495 | 1464
x2 = 0.8128 | 1065.71 | 1061.34 | 1057.26 | 1053.06 | 1501 | 1471
x2 = 0.8551 | 1060.33 | 1056.07 | 1052.04 | 1047.91 | 1505 | 1474
x2 = 0.9351 | 1050 | 1045.96 | 1042.02 | 1038.01 | 1510 | 1481

Cc1cccc(Cl)c1 [3-chlorotoluene] + OCc1ccccc1
Conditions | mass density, 298.15 K [kg/m3] | mass density, 303.15 K [kg/m3] | mass density, 308.15 K [kg/m3] | mass density, 313.15 K [kg/m3] | speed of sound, 303.15 K [m/s] | speed of sound, 313.15 K [m/s]
x2 = 0.0583 | 1065.82 | 1061.18 | 1056.8 | 1052.23 | 1298 | 1294
x2 = 0.1107 | 1064.36 | 1059.84 | 1055.47 | 1050.83 | 1316 | 1304
x2 = 0.1903 | 1062.34 | 1057.86 | 1053.42 | 1048.82 | 1340 | 1321
x2 = 0.2401 | 1061.05 | 1056.6 | 1052.17 | 1047.95 | 1356 | 1331
x2 = 0.3028 | 1059.47 | 1055.2 | 1050.6 | 1046.35 | 1374 | 1343
x2 = 0.3703 | 1057.61 | 1053.44 | 1048.89 | 1044.54 | 1394 | 1356
x2 = 0.4442 | 1055.83 | 1051.49 | 1047.05 | 1042.9 | 1414 | 1371
x2 = 0.5405 | 1053.04 | 1049.21 | 1044.67 | 1040.69 | 1440 | 1389
x2 = 0.6285 | 1050.88 | 1046.99 | 1042.53 | 1038.52 | 1462 | 1409
x2 = 0.7019 | 1049.03 | 1045.09 | 1040.75 | 1036.95 | 1477 | 1422
x2 = 0.7558 | 1047.64 | 1043.62 | 1039.43 | 1035.23 | 1487 | 1435
x2 = 0.8109 | 1046.31 | 1042.35 | 1038.15 | 1034.05 | 1494 | 1446
x2 = 0.8546 | 1045.2 | 1041.4 | 1037.11 | 1033.02 | 1501 | 1455
x2 = 0.8946 | 1044.04 | 1040.31 | 1036.18 | 1032.43 | 1504 | 1462
x2 = 0.9498 | 1042.49 | 1038.83 | 1034.89 | 1030.91 | 1510 | 1474

Cc1cccc([N+](=O)[O-])c1 [3-nitrotoluene] + OCc1ccccc1
Conditions | mass density, 298.15 K [kg/m3] | mass density, 303.15 K [kg/m3] | mass density, 308.15 K [kg/m3] | mass density, 313.15 K [kg/m3] | speed of sound, 303.15 K [m/s] | speed of sound, 313.15 K [m/s]
x2 = 0.0537 | 1146.83 | 1141.95 | 1137.26 | 1132.52 | 1446 | 1414
x2 = 0.1225 | 1139.74 | 1134.93 | 1130.25 | 1125.57 | 1451 | 1419
x2 = 0.1914 | 1132.59 | 1127.81 | 1123.19 | 1118.56 | 1456 | 1424
x2 = 0.2356 | 1127.96 | 1123.23 | 1118.65 | 1114.02 | 1459 | 1427
x2 = 0.2992 | 1121.25 | 1116.57 | 1112.02 | 1107.46 | 1464 | 1432
x2 = 0.3717 | 1113.52 | 1108.89 | 1104.4 | 1099.9 | 1469 | 1438
x2 = 0.4567 | 1104.33 | 1099.76 | 1095.34 | 1090.91 | 1476 | 1444
x2 = 0.5413 | 1095.03 | 1090.53 | 1086.18 | 1081.85 | 1481 | 1452
x2 = 0.6035 | 1088.09 | 1083.66 | 1079.37 | 1075.08 | 1486 | 1456
x2 = 0.6539 | 1082.39 | 1078.02 | 1073.77 | 1069.5 | 1490 | 1460
x2 = 0.7023 | 1076.86 | 1072.56 | 1068.36 | 1064.17 | 1494 | 1463
x2 = 0.7437 | 1072.1 | 1067.84 | 1063.65 | 1059.52 | 1496 | 1467
x2 = 0.8121 | 1064.1 | 1059.94 | 1055.82 | 1051.76 | 1502 | 1472
x2 = 0.8556 | 1058.96 | 1054.85 | 1050.78 | 1046.79 | 1505 | 1475
x2 = 0.9354 | 1049.37 | 1045.39 | 1041.41 | 1037.5 | 1511 | 1481

Cc1ccc(Cl)cc1 [4-chlorotoluene] + OCc1ccccc1
Conditions | mass density, 298.15 K [kg/m3] | mass density, 303.15 K [kg/m3] | mass density, 308.15 K [kg/m3] | mass density, 313.15 K [kg/m3] | speed of sound, 303.15 K [m/s] | speed of sound, 313.15 K [m/s]
x2 = 0.0509 | 1063.78 | 1058.47 | 1053.11 | 1048.16 | 1292 | 1248
x2 = 0.1252 | 1062.11 | 1056.85 | 1051.49 | 1046.61 | 1327 | 1265
x2 = 0.1878 | 1060.69 | 1055.5 | 1050.13 | 1045.28 | 1350 | 1281
x2 = 0.2309 | 1059.7 | 1054.46 | 1049.19 | 1044.4 | 1370 | 1288
x2 = 0.3028 | 1058.05 | 1052.76 | 1047.63 | 1042.92 | 1394 | 1307
x2 = 0.3649 | 1056.62 | 1051.58 | 1046.32 | 1041.65 | 1415 | 1325
x2 = 0.4393 | 1054.9 | 1049.98 | 1044.75 | 1040.17 | 1439 | 1343
x2 = 0.5424 | 1052.48 | 1047.59 | 1042.61 | 1038.12 | 1468 | 1369
x2 = 0.6094 | 1050.91 | 1046.21 | 1041.23 | 1036.83 | 1480 | 1387
x2 = 0.6598 | 1049.71 | 1045.06 | 1040.21 | 1035.88 | 1493 | 1399
x2 = 0.7028 | 1048.68 | 1044.09 | 1039.35 | 1035.06 | 1502 | 1410
x2 = 0.7557 | 1047.41 | 1042.91 | 1038.31 | 1034.1 | 1506 | 1423
x2 = 0.8153 | 1045.97 | 1041.58 | 1037.16 | 1033.02 | 1511 | 1437
x2 = 0.8539 | 1045.04 | 1040.74 | 1036.42 | 1032.32 | 1513 | 1448
x2 = 0.9235 | 1043.33 | 1039.23 | 1035.1 | 1031.15 | 1514 | 1465

Source: the NIST ThermoML archive (doi:10.1016/j.fluid.2014.01.019)
